The structures appear in SMILES notation.

The first assay deals with 4T1 murine breast cancer cells. Put plainly: Example S: in vitro anticancer screen, 4T1 cells, Wst1. Type of assay: cell-based, mouse. The settings on record: Mus musculus, 4T1, 18 h, 1 μM, 18 hr, Wst1; read-out: 4T1 1 μM, percent of cancer cell survival relative to vehicle treated cells. The method in brief:
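Read-out is Wst1 absorbance (450 nm, reference 630 nm) after roughly 2 hr dye incubation, giving percent cell survival versus vehicle. Before that, compounds at 1 μM or 5 μM were applied for 18 hr to 4T1 cells plated at 1×10^4 per well.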
Regarding `CCCCCCCCOCCCCCCn1cnc2cnc3ccccc3c21` [FI, 1-[6-(Octyloxy)hexyl]-1H-imidazo[4,5-c]quinoline], the viability at 1 µM stood at 26.5%.
With `CCCCCCOCCCCCCCCCn1cnc2cnc3ccccc3c21` [FJ, 1-[9-(Hexyloxy)nonyl]-1H-imidazo[4,5-c]quinoline], the viability at 1 µM worked out at 38.1%.
In the case of `CCCCOCCCCCCCCCCn1cnc2cnc3ccccc3c21` [FK, 1-(10-Butoxydecyl)-1H-imidazo[4,5-c]quinoline], the viability at 1 µM was 23.6%.

The same assay, now with this note: Mus musculus, 4T1, 18 h, 5 μM, 18 hr, Wst1; read-out: 4T1 5 μM, percent of cancer cell survival relative to vehicle treated cells.
For the compound `CCCCCCCCOCCCCCCn1cnc2cnc3ccccc3c21` [FI, 1-[6-(Octyloxy)hexyl]-1H-imidazo[4,5-c]quinoline], the viability at 5 µM came to 26.7%.
For `CCCCCCOCCCCCCCCCn1cnc2cnc3ccccc3c21` [FJ, 1-[9-(Hexyloxy)nonyl]-1H-imidazo[4,5-c]quinoline], the viability at 5 µM was 24.5%.
The same measure, in the same setting: next, `CCCCOCCCCCCCCCCn1cnc2cnc3ccccc3c21` [FK, 1-(10-Butoxydecyl)-1H-imidazo[4,5-c]quinoline]: 15.6%.

A further assay has as its system PC-3 prostate cancer cells. Put plainly: Example T: sensitisation of PC-3 cells to doxorubicin, oxaliplatin, paclitaxel or vincristine, Wst1. Type of assay: cell-based, human. The settings on record: Homo sapiens; PC-3 cells; compound 0.5 μM alone; 72 hours; Wst1; vehicle = 100; read-out: No Chemo: percent cell survival.
With `CCCCCCCCOCCCCCCn1cnc2cnc3ccccc3c21` [FI, 1-[6-(Octyloxy)hexyl]-1H-imidazo[4,5-c]quinoline], the viability at 0.5 µM is 35.2%.
In the case of `CCCCCCOCCCCCCCCCn1cnc2cnc3ccccc3c21` [FJ, 1-[9-(Hexyloxy)nonyl]-1H-imidazo[4,5-c]quinoline], the viability at 0.5 µM turned out to be 38.6%.
On the same count and under the same terms, in the case of `CCCCOCCCCCCCCCCn1cnc2cnc3ccccc3c21` [FK, 1-(10-Butoxydecyl)-1H-imidazo[4,5-c]quinoline] it was 35.5%.

The same assay, now with this note: PC-3 cells; compound 0.5 μM + doxorubicin 3.5 μM; 72 hours; chemotherapy agent alone normalized to 100%.
`CCCCCCCCOCCCCCCn1cnc2cnc3ccccc3c21` [FI, 1-[6-(Octyloxy)hexyl]-1H-imidazo[4,5-c]quinoline]: the “Doxorubicin 3.5 μM: percent cell survival” value was 79.8%.
Same read-out and setting: next, `CCCCCCOCCCCCCCCCn1cnc2cnc3ccccc3c21` [FJ, 1-[9-(Hexyloxy)nonyl]-1H-imidazo[4,5-c]quinoline]: 75.1%.
`CCCCOCCCCCCCCCCn1cnc2cnc3ccccc3c21` [FK, 1-(10-Butoxydecyl)-1H-imidazo[4,5-c]quinoline]: the “Doxorubicin 3.5 μM: percent cell survival” value stood at 47.4%.

Still in this assay, the particulars now being: PC-3 cells; compound 0.5 μM + oxaliplatin 100 μM; 72 hours; chemotherapy agent alone normalized to 100%.
Consider `CCCCCCCCOCCCCCCn1cnc2cnc3ccccc3c21` [FI, 1-[6-(Octyloxy)hexyl]-1H-imidazo[4,5-c]quinoline], for which the “Oxaliplatin 100 μM: percent cell survival” value stood at 91.4%.
On the same count and under the same terms, next, `CCCCCCOCCCCCCCCCn1cnc2cnc3ccccc3c21` [FJ, 1-[9-(Hexyloxy)nonyl]-1H-imidazo[4,5-c]quinoline]: 93%.
As to `CCCCOCCCCCCCCCCn1cnc2cnc3ccccc3c21` [FK, 1-(10-Butoxydecyl)-1H-imidazo[4,5-c]quinoline], the “Oxaliplatin 100 μM: percent cell survival” value is 62%.

Still in this assay, the particulars now being: PC-3 cells; compound 0.5 μM + paclitaxel 50 μM; 72 hours; chemotherapy agent alone normalized to 100%.
Regarding `CCCCCCCCOCCCCCCn1cnc2cnc3ccccc3c21` [FI, 1-[6-(Octyloxy)hexyl]-1H-imidazo[4,5-c]quinoline], the “Paclitaxel 50 μM: percent cell survival” value is 84%.
For `CCCCCCOCCCCCCCCCn1cnc2cnc3ccccc3c21` [FJ, 1-[9-(Hexyloxy)nonyl]-1H-imidazo[4,5-c]quinoline], the “Paclitaxel 50 μM: percent cell survival” value worked out at 97.3%.
As for `CCCCOCCCCCCCCCCn1cnc2cnc3ccccc3c21` [FK, 1-(10-Butoxydecyl)-1H-imidazo[4,5-c]quinoline], the “Paclitaxel 50 μM: percent cell survival” value was found to be 18%.

The assay is the same for the next values; noted with them: PC-3 cells; compound 0.5 μM + vincristine 100 nM; 72 hours; chemotherapy agent alone normalized to 100%.
For `CCCCCCCCOCCCCCCn1cnc2cnc3ccccc3c21` [FI, 1-[6-(Octyloxy)hexyl]-1H-imidazo[4,5-c]quinoline], the “Vincristine 100 nM: percent cell survival” value stood at 73.7%.
Turning to `CCCCCCOCCCCCCCCCn1cnc2cnc3ccccc3c21` [FJ, 1-[9-(Hexyloxy)nonyl]-1H-imidazo[4,5-c]quinoline], the “Vincristine 100 nM: percent cell survival” value was found to be 82.2%.
Consider `CCCCOCCCCCCCCCCn1cnc2cnc3ccccc3c21` [FK, 1-(10-Butoxydecyl)-1H-imidazo[4,5-c]quinoline], for which the “Vincristine 100 nM: percent cell survival” value is 39%.

In a further assay the test system is PC3 human prostate cancer cells. Put plainly: Example S: in vitro anticancer screen, PC-3 cells, Wst1. The settings on record: Homo sapiens, PC-3; 0.5 μM, approximately 20 hours, Wst1; read-out: PC-3, percent of cancer cell survival relative to vehicle treated cells. Type of assay: cell-based. The method in brief: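 Values give percent survival relative to vehicle, read by Wst1 absorbance (450/630 nm) after 2 h dye incubation, in triplicate. Cells were seeded at 2×10^4/well and treated about 20 h with compound at 0.4, 0.5 or 2.5 μM, depending on compound.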
On to `CCCCCCCCOCCCCCCn1cnc2cnc3ccccc3c21` [FI, 1-[6-(Octyloxy)hexyl]-1H-imidazo[4,5-c]quinoline], for which the viability at 0.5 µM worked out at 35.2%.
On to `CCCCCCOCCCCCCCCCn1cnc2cnc3ccccc3c21` [FJ, 1-[9-(Hexyloxy)nonyl]-1H-imidazo[4,5-c]quinoline], for which the viability at 0.5 µM came out at 38.6%.
As for `CCCCOCCCCCCCCCCn1cnc2cnc3ccccc3c21` [FK, 1-(10-Butoxydecyl)-1H-imidazo[4,5-c]quinoline], the viability at 0.5 µM is 35.5%.

The next assay deals with THP-1 cells. Put plainly: Example D: LPS-triggered THP-1 cell death assay, acute/5-hour and chronic/48-hour. The class given is cell-based, Human. The settings on record: 10 ng/ml LPS, 0.1 μM test compound, 48 hours. Here is the method: Compounds of the invention were tested at 0.1 μM versus AC in the LPS-triggered THP-1 cell death assay. Both acute/5-hour and chronic/48-hour phases of cell death were assessed. Compounds were screened in batches with DMSO as the negative control and AC as the high activity control.
Take `CCCCCCCCOCCCCCCn1cnc2cnc3ccccc3c21` [FI, 1-[6-(Octyloxy)hexyl]-1H-imidazo[4,5-c]quinoline]: the “Viable cell percent change, Chronic/48-hour, Mean” value was determined as 12.70%.
As for `CCCCCCOCCCCCCCCCn1cnc2cnc3ccccc3c21` [FJ, 1-[9-(Hexyloxy)nonyl]-1H-imidazo[4,5-c]quinoline], the “Viable cell percent change, Chronic/48-hour, Mean” value amounted to 27.44%.
The same measure, in the same setting: in the case of `CCCCOCCCCCCCCCCn1cnc2cnc3ccccc3c21` [FK, 1-(10-Butoxydecyl)-1H-imidazo[4,5-c]quinoline] it was 16.57%.
